From ChEMBL document CHEMBL1201862, “PubChem BioAssay data set” (2004)
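Assay format: 96-well plates, 48-hour exposure. The concentration for 50% growth inhibition is given as GI50.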 The source made the active and inactive calls. No stated cut-off is given here; in the data, active = GI50 up to about 1.1 µM and inactive = higher.

How the values were obtained:
Assay in all cases: NCI-60 cell line screen, 48 h
[1] = tested on: HCT-15
[2] = tested on: RPMI-8226
[3] = tested on: RXF 393
[4] = tested on: OVCAR-5
[5] = tested on: SF-295
[6] = tested on: OVCAR-8
[7] = tested on: NCI-H23
[8] = tested on: M14
[9] = tested on: HCT-116
[10] = tested on: PC-3
[11] = tested on: UACC-257
[12] = tested on: SK-OV-3
[13] = tested on: DU-145
[14] = tested on: UO-31
[15] = tested on: SF-539
[16] = tested on: LOX IMVI
[17] = tested on: SNB-19
[18] = tested on: OVCAR-4
[19] = tested on: MDA-MB-435
[20] = tested on: A549
[21] = tested on: TK-10
[22] = tested on: OVCAR-3
[23] = tested on: T47D
[24] = tested on: HT-29
[25] = tested on: CAKI-1
[26] = tested on: SN12C
[27] = tested on: NCI-H226
[28] = tested on: MCF7
[29] = tested on: MDA-N
[30] = tested on: SR
[31] = tested on: U-251
[32] = tested on: SK-MEL-5
[33] = tested on: CCRF-CEM
[34] = tested on: BT-549
[35] = tested on: HOP-62
[36] = tested on: ACHN
[37] = tested on: SF-268
[38] = tested on: HL-60
[39] = tested on: KM12
[40] = tested on: SNB-75
[41] = tested on: Malme-3M
[42] = tested on: SK-MEL-28
[43] = tested on: UACC-62
[44] = tested on: NCI/ADR-RES
[45] = tested on: K562
[46] = tested on: SW-620
[47] = tested on: MOLT-4
[48] = tested on: COLO 205
[49] = tested on: NCI-H522
[50] = tested on: SK-MEL-2
[51] = tested on: EKVX
[52] = tested on: 786-0

Compound: CC(=O)Oc1ccccc1C(=O)O [ASPIRIN]
- GI50 [1]: > 100 µM
- GI50 [2]: > 100 µM (inactive)
- GI50 [3]: > 100 µM (inactive)
- GI50 [4]: > 100 µM (inactive)
- GI50 [5]: > 100 µM (inactive)
- GI50 [6]: > 100 µM (inactive)
- GI50 [7]: > 100 µM (inactive)
- GI50 [8]: > 100 µM (inactive)
- GI50 [9]: > 100 µM (inactive)
- GI50 [10]: > 100 µM (inactive)
- GI50 [11]: > 100 µM (inactive)
- GI50 [12]: > 100 µM (inactive)
- GI50 [13]: > 100 µM (inactive)
- GI50 [14]: > 100 µM (inactive)
- GI50 [15]: > 100 µM (inactive)
- GI50 [16]: > 100 µM (inactive)
- GI50 [17]: > 100 µM (inactive)
- GI50 [18]: > 100 µM (inactive)
- GI50 [19]: > 100 µM (inactive)
- GI50 [20]: > 100 µM (inactive)
- GI50 [21]: > 100 µM (inactive)
- GI50 [22]: > 100 µM (inactive)
- GI50 [23]: > 100 µM (inactive)
- GI50 [24]: > 100 µM (inactive)
- GI50 [25]: > 100 µM (inactive)
- GI50 [26]: > 100 µM (inactive)
- GI50 [27]: > 100 µM (inactive)
- GI50 [28]: > 100 µM (inactive)
- GI50 [29]: > 100 µM (inactive)
- GI50 [30]: > 100 µM (inactive)
- GI50 [31]: > 100 µM (inactive)
- GI50 [32]: > 100 µM (inactive)
- GI50 [33]: > 100 µM (inactive)
- GI50 [34]: > 100 µM (inactive)
- GI50 [35]: > 100 µM (inactive)
- GI50 [36]: > 100 µM (inactive)
- GI50 [37]: > 100 µM (inactive)
- GI50 [38]: > 100 µM (inactive)
- GI50 [39]: > 100 µM (inactive)
- GI50 [40]: > 100 µM (inactive)
- GI50 [41]: > 100 µM (inactive)
- GI50 [42]: > 100 µM (inactive)
- GI50 [43]: > 100 µM (inactive)
- GI50 [44]: > 100 µM (inactive)
- GI50 [45]: > 100 µM (inactive)
- GI50 [46]: > 100 µM (inactive)
- GI50 [47]: > 100 µM (inactive)
- GI50 [48]: > 100 µM (inactive)
- GI50 [49]: > 100 µM (inactive)
- GI50 [50]: > 100 µM (inactive)
- GI50 [51]: > 100 µM (inactive)
- GI50 [52]: > 100 µM (inactive)
